Source: patent US20060159746A1, “Compositions comprising fatty acids and amino acids” (priority 2003, published 2006)
Marks after values point to notes of the source that are not given here.

Assays:
Assay type in all cases: in vivo
Lepr db mouse = test: OGT (1 g glucose/kg) combined with oral administration of the active ingredient; postprandial glucose and insulin; set-up: Serum insulin levels: unit not given here; settings: for Serum glucose levels: in mg/dL (unit assumed)
Experimental: Acute effects of a nutritional formula, Starlix® and 4-HI on glycemic control in the type 2 diabetes animal model (Lepr db mouse) were studied. Animals underwent an OGT (1 g glucose/kg) combined with oral administration of the active ingredient. The following groups were tested: (A) placebo (2% Tween 80, 20 ml/kg), (B) 4-HI (100 mg/kg), (C) guar gum (150 mg/kg), (D) Starlix® (65 mg/kg), (E) Starlix®+4-HI, and (F) Starlix®+guar gum. Postprandial glucose and insulin were studied at 0, 30, 60 and 90 min.

[1] = Body weight and weight gain of Lepr db/db mice fed different fatty acid diets for 6 wks; settings: for Body wt at 6 wks: 6 wks after dietary intervention; for Wt gain at 6 wks: 6 wks of diet
Experimental: (§1) C57BLKS/J-Lepr^db/db male mice (4 wks of age) were obtained from Jackson Laboratory, Bar Harbor, Me. Mice were initially maintained on commercial chow for 2 wks, followed by a purified stabilization diet providing 40% en as fat and 2% en as linoleic acid (LA, 18:2n-6) for another 2 wks. At 8 wks of age, a baseline oral glucose tolerance test was conducted. Based on their OGTT profile, mice were evenly distributed among 6 groups (n=6 per each group) and were fed one of 6 experimental diets designed to establish the relative importance of specific fatty acid supplementation on ameliorating insulin resistance.
(§2) Table 1 gives the predicted fatty acid profile (% en) for the 6 experimental diets. The control diet, based on butter and palm oil blend, provided 40% en as fat with 2% en as LA. […] These Lepr db/db mice were fed one of the above 6 diets for 6 weeks.
(§3) Body weights of animals were recorded each week. Insulin tolerance testing was performed after 6 weeks of dietary intervention. Mice (non-fasted) were injected intraperitoneally with 1.5 U/kg human insulin and blood glucose concentrations were determined at 0, 15, 30 and 60 min after insulin injection by tail bleeding, using a glucometer. A week later, fasting blood samples were collected by cardiac puncture, under Co2/O2 anesthesia, for analysis of plasma insulin, triglyceride (TG) and total cholesterol (TC). […] Plasma insulin was determined using the RIA kit (Linco research Inc, MO).

Lepr db/db mice [2] = test: Fasting plasma lipids (TG, TC) in Lepr db/db mice fed different fatty acids; settings: after diet feeding
Experimental: as §1, §2, §3

Lepr db/db mice [3] = test: Insulin tolerance testing (blood glucose after i.p. human insulin) after 6 weeks of dietary intervention; settings: 1.5 U/kg human insulin i.p.
Experimental: as §1, §2, §3

| Compound | Serum insulin levels (Lepr db mouse; 0 min of OGT) | Serum glucose levels (Lepr db mouse; 0 min of OGT) | Serum insulin levels (Lepr db mouse; 30 min of OGT) | Serum glucose levels (Lepr db mouse; 30 min of OGT) | Serum insulin levels (Lepr db mouse; 60 min of OGT) | Serum glucose levels (Lepr db mouse; 60 min of OGT) | Serum insulin levels (Lepr db mouse; 90 min of OGT) | Serum glucose levels (Lepr db mouse; 90 min of OGT) | Body wt at 6 wks [1] [g] | Wt gain at 6 wks [1] [g] | Fasting plasma TC (Lepr db/db mice [2]) | Fasting plasma TG (Lepr db/db mice [2]) | Mean blood glucose values (percentage of intial) after insulin administration (Lepr db/db mice [3]; 0 min, non-fasted) | Mean blood glucose values (percentage of intial) after insulin administration (Lepr db/db mice [3]; 15 min) | Mean blood glucose values (percentage of intial) after insulin administration (Lepr db/db mice [3]; 30 min) | Mean blood glucose values (percentage of intial) after insulin administration (Lepr db/db mice [3]; 60 min) | Hypoglycemic effect, in words (Lepr db mouse; serum glucose in OGT) |
| --- | --- | --- | --- | --- | --- | --- | --- | --- | --- | --- | --- | --- | --- | --- | --- | --- | --- |
| C[C@@H]([C@H](C)O)[C@H](N)C(=O)O [4HI, 4-hydroxyisoleucine] | 8.17 | 227.7 | 11.27 | 473.7 | 6.41 | 494.7 | 4.63 | 584 |  |  |  |  |  |  |  |  |  |
| CC/C=C\C/C=C\C/C=C\C/C=C\C/C=C\C/C=C\CCC(=O)O [DHA, docosahexaenoic acid] |  |  |  |  |  |  |  |  | 48.9 ± 3.8 | 6.1 ± 5.2 | 288 ± 39 ^ mg/dl | 101 ± 14^a,c mg/dl | 100 percentage of intial | 131 percentage of intial | 120 percentage of intial | 99 percentage of intial |  |
| CCCCC/C=C\C/C=C\CCCCCCCC(=O)O [LA, linoleic acid] |  |  |  |  |  |  |  |  | 43.9 ± 5.4 | 2.5 ± 4.3 | 313 ± 28 ^ mg/dl | 120 ± 24^a,b mg/dl | 100 percentage of intial | 135 percentage of intial | 115 percentage of intial | 85 percentage of intial |  |
| CC/C=C\C/C=C\C/C=C\CCCCCCCC(=O)O [LNA, linolenic acid] |  |  |  |  |  |  |  |  | 50.5 ± 2.4 | 8.3 ± 4 | 326 ± 13^ mg/dl | 142 ± 27^b mg/dl | 100 percentage of intial | 138 percentage of intial | 127 percentage of intial | 100 percentage of intial |  |
| CC(C)[C@H]1CC[C@H](C(=O)N[C@H](Cc2ccccc2)C(=O)O)CC1 [Starlix, nateglinide] | 9.8 | 210 | 11.18 | 456.7 | 5.38 | 497.3 | 3.75 | 599 |  |  |  |  |  |  |  |  | significant hypoglycemic effect at T90 |
